Key:
[1] = Inhibition of HCV recombinant NS5B polymerase; parameters: species or system Hepacivirus hominis
Hepatitis C virus = assay: Antiviral activity against Hepatitis C virus by cell based replicon assay; assay type: functional, organism-based, Hepacivirus hominis

Row | IC50 [1] | EC50 (Hepatitis C virus) | Structure (SMILES)
1 | 1800 nM |  | N#Cc1c(O)nsc1Nc1cc(Cl)cc(S(=O)(=O)NC23CC4CC(CC(C4)C2)C3)c1
2 | 5900 nM | 2000 nM | N#Cc1c(O)nsc1Nc1cc(C(F)(F)F)cc(C(F)(F)F)c1
3 | > 100000 nM |  | Cc1cc(C)cc(Nc2snc(O)c2C#N)c1
4 | 900 nM | 2900 nM | N#Cc1c(O)nsc1Nc1cccc(F)c1
5 | 4700 nM |  | COC(=O)c1ccc(Cl)cc1Nc1snc(O)c1C#N
6 | 1000 nM |  | N#Cc1c(O)nsc1Nc1cc(Cl)ccc1OCc1ccccc1
7 | 9700 nM |  | CS(=O)(=O)c1cccc(Nc2snc(O)c2C#N)c1
8 | 2000 nM |  | COC(=O)c1cc(Nc2snc(O)c2C#N)cc(C(F)(F)F)c1
9 | 1800 nM |  | COC(=O)c1ccc(-c2ccc(Cl)cc2Nc2snc(O)c2C#N)o1
10 | 6400 nM |  | N#Cc1c(O)nsc1Nc1cc(Cl)ccc1OCc1ccc2ccccc2c1
11 | 33000 nM |  | N#Cc1c(O)noc1Nc1cc(Br)cc(Br)c1
12 | 300 nM | 220 nM | N#Cc1c(O)nsc1Nc1cc(F)cc(F)c1
13 | 200 nM | 100 nM | N#Cc1c(O)nsc1Nc1cc(Cl)cc(Cl)c1
14 | 300 nM |  | N#Cc1c(O)nsc1Nc1cc(Br)ccc1OCc1ccccc1
15 | 700 nM |  | N#Cc1c(O)nsc1Nc1ccc(Cl)cc1Cl
16 | 1400 nM |  | N#Cc1c(O)nsc1Nc1cccc(S(=O)(=O)NC23CC4CC(CC(C4)C2)C3)c1
17 | 1500 nM |  | N#Cc1c(O)nsc1Nc1cc(C(=O)O)cc(C(F)(F)F)c1
18 | 44000 nM |  | N#Cc1c(O)nsc1Nc1nc2ccc(F)cc2s1
19 | 3500 nM |  | N#Cc1c(O)nsc1Nc1cc(C(F)(F)F)cc(S(=O)(=O)NC23CC4CC(CC(C4)C2)C3)c1
20 | 1200 nM | 1100 nM | N#Cc1c(O)nsc1Nc1ccc(I)cc1
21 | 8300 nM |  | CCCCS(=O)(=O)c1cccc(Nc2snc(O)c2C#N)c1
22 | 1200 nM |  | N#Cc1c(O)nsc1Nc1ccc(F)cc1
23 | 300 nM |  | N#Cc1c(O)nsc1Nc1cc(Br)cc(C(F)(F)F)c1
24 | 1300 nM |  | N#Cc1c(O)nsc1Nc1ccccc1Oc1ccccc1
25 | 9700 nM |  | N#Cc1c(O)nsc1Nc1cccc(S(N)(=O)=O)c1
26 | 1700 nM |  | N#Cc1c(O)nsc1Nc1cc(Br)ccc1OCc1ccc2ccccc2c1
27 | > 100000 nM |  | COc1cccc(Nc2snc(O)c2C#N)c1
28 | 500 nM | 3400 nM | N#Cc1c(O)nsc1Nc1cc(F)ccc1Oc1ccccc1
